{"source": "PubChem BioAssay AID977613", "about": "(Broad Institute, 2014)", "note": "The source made the active and inactive calls. The rule behind the calls is not given here."}
{"test_system": "Broad 7084-01 inhibitor HTS, set 2", "assay": "inhibitors in Broad screen 7084-01, set 2 (AID 977613);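 note: host cells are infected with parasite promastigotes that become internalized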"}
{"compound": "COc1ccc2c3c(n(C)c2c1)[C@H](CO)N(C(=O)Nc1ccc(F)cc1)CC31CCN(C(=O)c2ccc3c(c2)OCO3)CC1", "active concentration": "> 10 µM (inactive)"}
{"compound": "COCC(=O)N1CC2(C1)CN(Cc1nccs1)[C@@H](CO)c1c2c2ccc(OC)cc2n1C", "active concentration": "> 10 µM (inactive)"}
{"compound": "CN1C(=O)c2cc(NC(=O)c3ccc(F)c(F)c3)ccc2OC[C@@H]2O[C@@H](CC(=O)N[C@@H]3CCN(Cc4ccccc4)C3)CC[C@H]21", "active concentration": "> 10 µM (inactive)"}
{"compound": "CCS(=O)(=O)N1CCC2(CC1)CN(C(=O)Nc1c(C)noc1C)[C@H](CO)c1c2c2ccc(OC)cc2n1C", "active concentration": "> 10 µM (inactive)"}
{"compound": "CC(=O)N1CCCCN2[C@@H](CO)[C@H](c3ccc(-c4ccccc4)cc3)[C@@H]2C1", "active concentration": "> 10 µM (inactive)"}
{"compound": "COc1ccc(CN2[C@H](CO)[C@H]3c4ccccc4N(C(=O)Nc4ccc(F)cc4)C[C@H]32)cc1", "active concentration": "> 10 µM (inactive)"}
{"compound": "O=C(Cc1ccccn1)N1CC2(C1)[C@H](c1ccccc1)[C@@H](CO)N2C(=O)c1cccnc1", "active concentration": "> 10 µM (inactive)"}
{"compound": "CN1CCN(C(=O)C[C@H]2CC[C@H]3[C@@H](COC[C@@H](O)CN3C(=O)C3CC3)O2)CC1", "active concentration": "> 10 µM (inactive)"}
{"compound": "O=C(C[C@H]1CC[C@@H]2[C@H](COC[C@H](O)CN2C(=O)Nc2ccc(Cl)c(Cl)c2)O1)NCc1ccc(Cl)cc1", "active concentration": "> 10 µM (inactive)"}
{"compound": "CCCNC(=O)N1[C@@H]2Cn3c(ccc(-c4ccccc4OC)c3=O)[C@H]1[C@@H](C(=O)NCC)[C@@H]2CO", "active concentration": "> 10 µM (inactive)"}
{"compound": "O=C(C1CCOCC1)N1CC(=O)N2[C@H](C1)[C@@H](c1ccc(C#CCc3ccccc3)cc1)[C@@H]2CO", "active concentration": "> 10 µM (inactive)"}
{"compound": "O=C(C1CCOCC1)N1CC(=O)N2[C@H](C1)[C@H](c1ccc(-c3cccnc3)cc1)[C@@H]2CO", "active concentration": "> 10 µM (inactive)"}
{"compound": "Cc1ccc(S(=O)(=O)N2CC[C@H]3[C@H](CO)Nc4ccc(C#Cc5ccc(F)cc5)cc4[C@H]32)cc1", "active concentration": "> 10 µM (inactive)"}
{"compound": "O=C(C[C@H]1CC[C@@H]2[C@H](COC[C@@H](O)CN2Cc2cccc(F)c2)O1)NCc1cccc(F)c1", "active concentration": "> 10 µM (inactive)"}
{"compound": "COc1ccc2c3c([nH]c2c1)[C@@H](CO)N(S(C)(=O)=O)CC31CCN(C(=O)Nc2ccccc2)CC1", "active concentration": "> 10 µM (inactive)"}
{"compound": "CCCNC(=O)N1CC2(CCN(C(=O)c3cccc(F)c3)CC2)c2c([nH]c3cc(OC)ccc23)[C@H]1CO", "active concentration": "> 10 µM (inactive)"}
{"compound": "O=C(c1cnccn1)N1CC(=O)N2[C@H](CO)[C@@H](c3ccc(C#CC4CC4)cc3)[C@H]2C1", "active concentration": "> 10 µM (inactive)"}
{"compound": "Cn1cnc(CCNC(=O)C[C@@H]2CC[C@@H]3[C@H](COC[C@@H](O)CN3C(=O)C3CC3)O2)c1", "active concentration": "> 10 µM (inactive)"}
{"compound": "Cc1ccccc1S(=O)(=O)N1CCCCN2[C@H](C1)[C@@H](c1ccc(C#CCN(C)C)cc1)[C@@H]2CO", "active concentration": "> 10 µM (inactive)"}
{"compound": "COc1ccc2c3c([nH]c2c1)[C@H](CO)N(C(=O)C1CCOCC1)CC31CN(C(=O)NC(C)C)C1", "active concentration": "> 10 µM (inactive)"}
{"compound": "COc1ccc2c3c(n(C)c2c1)[C@@H](CO)N(C(=O)Nc1cccc(F)c1)CC31CN(Cc2nccs2)C1", "active concentration": "> 10 µM (inactive)"}
{"compound": "CC(C)C#Cc1ccc([C@H]2[C@H](CO)N3C(=O)CN(C(=O)Cc4ccccc4)C[C@@H]23)cc1", "active concentration": "> 10 µM (inactive)"}
{"compound": "CCCNC(=O)N1[C@H](CO)[C@H](c2ccccc2-c2ccc(C)cc2)[C@@H]1C#N", "active concentration": "> 10 µM (inactive)"}
{"compound": "COc1cccc(C(=O)N2C[C@H]3[C@@H](c4ccccc42)[C@H](CO)N3Cc2ccccc2Cl)c1", "active concentration": "< 10 µM"}
{"compound": "COc1cccc(NC(=O)N2C[C@@H](O)COC[C@H]3O[C@@H](CC(=O)NC4CCC4)CC[C@@H]32)c1", "active concentration": "> 10 µM (inactive)"}
{"compound": "CN1C(=O)c2cc(NC(=O)c3ccccc3Cl)ccc2OC[C@H]2O[C@H](CC(=O)NCC(F)(F)F)CC[C@H]21", "active concentration": "> 10 µM (inactive)"}
{"compound": "O=C(C[C@H]1CC[C@@H]2[C@H](COC[C@H](O)CN2C(=O)c2ccccc2F)O1)NCc1ccccc1", "active concentration": "> 10 µM (inactive)"}
{"compound": "COCC#Cc1ccc([C@@H]2[C@H]3CN(C(=O)Nc4ccccc4F)CC(=O)N3[C@H]2CO)cc1", "active concentration": "> 10 µM (inactive)"}
{"compound": "Cc1ccccc1-c1ccc([C@H]2[C@H]3CN(S(=O)(=O)Cc4ccccc4)CCCCN3[C@H]2CO)cc1", "active concentration": "> 10 µM (inactive)"}
{"compound": "CC(C)CC#Cc1ccc([C@H]2[C@H]3CN(S(=O)(=O)c4cccc(F)c4)CC(=O)N3[C@H]2CO)cc1", "active concentration": "> 10 µM (inactive)"}
{"compound": "COc1ccc(NC(=O)N2CCCCN3[C@H](C2)[C@@H](c2ccc(-c4ccccc4F)cc2)[C@@H]3CO)cc1", "active concentration": "> 10 µM (inactive)"}
{"compound": "O=C(c1ccccc1)N1CC(=O)N2[C@H](C1)[C@@H](c1ccc(-c3ccccc3)cc1)[C@@H]2CO", "active concentration": "> 10 µM (inactive)"}
{"compound": "O=C(C[C@@H]1CC[C@@H]2[C@H](COC[C@H](O)CN2C(=O)c2ccccc2F)O1)NCc1ccccc1", "active concentration": "> 10 µM (inactive)"}
{"compound": "CC(=O)N1[C@@H]2c3ccc(-c4cccc(F)c4)c(=O)n3C[C@@H]2[C@@H](CO)[C@@H]1C(=O)NCCCN(C)C", "active concentration": "> 10 µM (inactive)"}
{"compound": "N#C[C@@H]1[C@H](c2ccccc2C2=CCCCC2)[C@@H](CO)N1C(=O)C1CCOCC1", "active concentration": "> 10 µM (inactive)"}
{"compound": "O=C(C1CCCCC1)N1CC(=O)N2[C@H](CO)[C@@H](c3ccc(-c4ccccc4F)cc3)[C@@H]2C1", "active concentration": "> 10 µM (inactive)"}
{"compound": "COc1ccc(CN2[C@@H]3CN(C(=O)Nc4ccc(F)cc4)c4ccccc4[C@@H]3[C@@H]2CO)cc1", "active concentration": "> 10 µM (inactive)"}
{"compound": "O=C(C[C@H]1CC[C@H]2[C@@H](COC[C@@H](O)CN2C(=O)c2ccc3c(c2)OCO3)O1)NC1CCC1", "active concentration": "> 10 µM (inactive)"}
{"compound": "O=C(C[C@H]1CC[C@H]2[C@@H](COC[C@H](O)CN2CC2CCOCC2)O1)NCC1CCCCC1", "active concentration": "> 10 µM (inactive)"}
{"compound": "CCNC(=O)C[C@H]1CC[C@H]2[C@@H](COC[C@@H](O)CN2C(=O)C2CC2)O1", "active concentration": "> 10 µM (inactive)"}
{"compound": "CCCC#Cc1ccc([C@H]2[C@H]3CN(C(=O)CN4CCOCC4)CC(=O)N3[C@H]2CO)cc1", "active concentration": "> 10 µM (inactive)"}
{"compound": "OC[C@H]1[C@@H](c2ccc(C#CC3(O)CCCC3)cc2)[C@H]2CN(Cc3cncnc3)CCCCN21", "active concentration": "> 10 µM (inactive)"}
{"compound": "CC(=O)N1CC[C@H]2[C@@H]1c1cc(-c3ccc(C#N)cc3)ccc1N(C)[C@H]2CO", "active concentration": "> 10 µM (inactive)"}
{"compound": "CN1c2ccc(C3=CCCCC3)cc2[C@H]2[C@H](CCN2C(=O)C2CCCC2)[C@@H]1CO", "active concentration": "> 10 µM (inactive)"}
{"compound": "N#C[C@@H]1[C@@H](c2ccccc2C2=CCCCC2)[C@@H](CO)N1C(=O)c1cccc(F)c1", "active concentration": "> 10 µM (inactive)"}
{"compound": "O=C(C[C@@H]1CC[C@H]2[C@@H](COC[C@@H](O)CN2S(=O)(=O)c2ccc(F)cc2)O1)NCC1CC1", "active concentration": "> 10 µM (inactive)"}
{"compound": "O=C(NC1CCCC1)N1CCCCN2[C@H](C1)[C@@H](c1ccc(-c3cccnc3)cc1)[C@@H]2CO", "active concentration": "> 10 µM (inactive)"}
{"compound": "C/C=C/c1ccc([C@@H]2[C@@H](CO)N3CCCCN(S(=O)(=O)c4ccc(OC)cc4)C[C@H]23)cc1", "active concentration": "> 10 µM (inactive)"}
{"compound": "O=C(C[C@H]1CC[C@H]2[C@@H](COC[C@@H](O)CN2S(=O)(=O)c2cccc(F)c2)O1)Nc1ccc(-c2ccccc2)cc1", "active concentration": "> 10 µM (inactive)"}
{"compound": "C[C@H](O)C#Cc1ccc([C@H]2[C@@H](CO)N3CCCCN(C(=O)c4ccc5c(c4)OCO5)C[C@H]23)cc1", "active concentration": "> 10 µM (inactive)"}
{"compound": "O=C(CC1CC1)N1CC(=O)N2[C@@H](CO)[C@H](c3ccc(C#Cc4cccc(F)c4)cc3)[C@@H]2C1", "active concentration": "> 10 µM (inactive)"}
{"compound": "CN(C)CC(=O)N1CC2(C1)[C@@H](c1ccccc1)[C@@H](CO)N2C(=O)C1CC1", "active concentration": "> 10 µM (inactive)"}
{"compound": "O=C(C[C@@H]1CC[C@H]2[C@@H](COC[C@H](O)CN2CCC(F)(F)F)O1)NCC1CC1", "active concentration": "> 10 µM (inactive)"}
{"compound": "C/C=C/c1ccccc1[C@@H]1[C@@H](CO)N(C(=O)Cc2ccccn2)[C@H]1C#N", "active concentration": "> 10 µM (inactive)"}
{"compound": "OC[C@@H]1[C@H](c2ccccc2)C2(CN(Cc3nccs3)C2)N1Cc1cccnc1", "active concentration": "> 10 µM (inactive)"}
{"compound": "CCCNC(=O)N1[C@H](CO)[C@H](c2ccccc2-c2ccccc2F)[C@@H]1C#N", "active concentration": "> 10 µM (inactive)"}
{"compound": "C/C=C/c1ccc([C@@H]2[C@H](CO)N(CC3CC3)C23CN(C(=O)c2ccc4c(c2)OCO4)C3)cc1", "active concentration": "> 10 µM (inactive)"}
{"compound": "O=C(c1cnccn1)N1CC[C@@H]2[C@H]1c1cc(-c3ccccc3F)ccc1N[C@@H]2CO", "active concentration": "> 10 µM (inactive)"}
{"compound": "CCC(=O)N1CC(=O)N2[C@H](CO)[C@H](c3ccc(-c4ccc(C#N)cc4)cc3)[C@@H]2C1", "active concentration": "> 10 µM (inactive)"}
{"compound": "CCCNC(=O)N1CC(=O)N2[C@H](CO)[C@H](c3ccc(-c4ccc(F)cc4)cc3)[C@H]2C1", "active concentration": "> 10 µM (inactive)"}
{"compound": "O=C(Nc1cccc(Cl)c1)N1C[C@@H]2[C@H](c3ccccc31)[C@H](CO)N2CC1CCOCC1", "active concentration": "> 10 µM (inactive)"}
{"compound": "COc1ccccc1CNC(=O)C[C@H]1CC[C@@H]2[C@H](COC[C@@H](O)CN2C(=O)Nc2ccccc2)O1", "active concentration": "> 10 µM (inactive)"}
{"compound": "CC=Cc1ccc2n(c1=O)C[C@H]1[C@H](CO)[C@@H](C(=O)N[C@@H](C)c3ccccc3)N(C(=O)c3cnccn3)[C@@H]21", "note": "(mixture of isomers)", "active concentration": "> 10 µM (inactive)"}
{"compound": "COc1ccc2c3c([nH]c2c1)[C@@H](CO)N(C(=O)Nc1c(C)noc1C)CC31CN(CC2CCOCC2)C1", "active concentration": "> 10 µM (inactive)"}
{"compound": "Cc1ccccc1S(=O)(=O)N1CCCCN2[C@H](C1)[C@H](c1ccc(C#CCN(C)C)cc1)[C@@H]2CO", "active concentration": "> 10 µM (inactive)"}
{"compound": "CN(C)C(=O)C[C@@H]1CC[C@@H]2[C@H](COC[C@H](O)CN2C(=O)C2CC2)O1", "active concentration": "> 10 µM (inactive)"}
{"compound": "O=S(=O)(c1ccccc1F)N1CC[C@@H]2[C@H]1c1cc(-c3ccccc3F)ccc1N[C@@H]2CO", "active concentration": "> 10 µM (inactive)"}
{"compound": "COc1ccc(-c2ccc3c(c2)[C@@H]2[C@@H](CCN2C(=O)CN2CCOCC2)[C@@H](CO)N3)cc1", "active concentration": "> 10 µM (inactive)"}
{"compound": "CCS(=O)(=O)Nc1ccc2c(c1)C(=O)N(C)[C@@H]1CC[C@H](CC(=O)NCCOC)O[C@H]1CO2", "active concentration": "> 10 µM (inactive)"}
